From patent US20060063711A1, “Use of sglt homolog” (priority 2002, published 2006)

Molecular target: T1, human SGLT2 (hSGLT2) (Homo sapiens, UniProt P31639)
T1 construct: expressed in transfected cells; host or cells: CHO cells
T1 sequence (P31639 1-672): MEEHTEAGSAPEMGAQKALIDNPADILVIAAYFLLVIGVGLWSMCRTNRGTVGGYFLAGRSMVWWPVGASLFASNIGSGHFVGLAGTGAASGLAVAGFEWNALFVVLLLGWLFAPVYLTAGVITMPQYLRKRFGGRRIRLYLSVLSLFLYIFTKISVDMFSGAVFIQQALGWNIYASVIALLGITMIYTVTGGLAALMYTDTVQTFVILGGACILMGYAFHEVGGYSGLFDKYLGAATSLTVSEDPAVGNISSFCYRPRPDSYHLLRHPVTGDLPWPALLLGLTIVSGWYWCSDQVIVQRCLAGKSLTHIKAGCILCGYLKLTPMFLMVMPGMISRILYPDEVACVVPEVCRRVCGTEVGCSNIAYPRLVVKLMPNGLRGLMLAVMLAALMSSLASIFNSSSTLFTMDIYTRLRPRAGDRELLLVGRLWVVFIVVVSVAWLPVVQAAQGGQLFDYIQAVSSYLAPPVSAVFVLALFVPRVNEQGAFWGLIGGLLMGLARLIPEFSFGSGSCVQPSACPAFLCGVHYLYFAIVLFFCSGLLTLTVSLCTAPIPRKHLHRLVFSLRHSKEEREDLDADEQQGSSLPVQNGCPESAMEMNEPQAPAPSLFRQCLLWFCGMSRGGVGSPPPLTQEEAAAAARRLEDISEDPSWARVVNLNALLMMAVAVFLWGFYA
Test: α-methyl glucose uptake in CHO cells expressing hSGLT2
Format: cell-based
Settings: control = NMDG without NaCl
Procedure: The cells were plated on 100 μl of DMEM containing 10% FBS charged in a 96-well plate in a cell density of 1×10^5 cells/well, followed by culturing overnight at 37° C. […] The buffer solution was removed and replaced with 90 μl of the same buffer solution or the buffer solution containing NaCl or NaCl+Phlorizin (Sigma) in place of N-Methyl-D-Glucamine (NMDG). After one-hour incubation with 10 μl of 1 mM α-methyl glucose (containing 0.02 μCi of [^14C]-α-Methyl Glucose (Amersham Pharmacia Biotech)) per well, the cells were washed 3 times with 200 μl of chilled PBS buffer. The radioactivity of ^14C taken up into the cells was counted with 100 μl of a liquid scintillator added per well.

O=C(CCc1ccc(O)cc1)c1c(O)cc(O)cc1O[C@@H]1O[C@H](CO)[C@@H](O)[C@H](O)[C@H]1O [phlorizin]
Uptake of α-Methyl Glucose (% based on Control Group) (NaCl + 3 μM phlorizin): 139 ± 23%
Uptake of α-Methyl Glucose (% based on Control Group) (NaCl + 100 μM phlorizin): 48 ± 8%
